pIC50: −log10 of the molar value.
Experiments:
Hs578T [1] = experiment: Cell vitality assay (ATP assay, CellTiter-Glo); assay type: cell-based; conditions: Homo sapiens, Hs-578T; HS578T cell line, 72 h; Table Ib; read-out: IC50 ATP-Assay HS578T after 72 h
Summary of the method: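 IC50s reflect 50% loss of ATP-dependent luminescence versus DMSO control after a 72 h treatment of 1000 cells per well across 0.195–12.5 μM compound.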

Hs578T [2] = experiment: Wound healing migration assay; assay type: cell-based; conditions: Homo sapiens, Hs-578T; HS578T cell line; Table Ib
Summary of the method: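 Compound exposure at 12.5, 6.25 and 3.125 μM, with DMSO control, on scratch-wounded monolayers (150000 cells/24 well, overnight). Wound closure imaged by microscopy, fixed with crystal violet after 48 h or 72 h depending on cell line; IC50 is the concentration giving 50% wound size between t0 and t48/t72.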

Hs578T [3] = experiment: Matrigel outgrowth assay/branching assay; assay type: cell-based; conditions: Homo sapiens, Hs-578T; HS578T cell line; Table Ib; read-out: Total branching inhibition in Matrigel HS578T
Summary of the method: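 Invasive outgrowth into a 3 mg/ml Matrigel gel is judged from images taken after 48, 72 and 96 h of exposure to 3.125, 1.56 or 0.78 μM compound, with DMSO as control. Positive means total inhibition of branching.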

[4] = molecular target: T1, wild type AXL (wtAXL) receptor tyrosine kinase (Homo sapiens, UniProt P30530); experiment: NIH-3T3-AXL cellular kinase assay (pY-AXL-ELISA); assay type: cell-based; conditions: NIH-3T3-AXL (clone 22) cells, serum depleted, compounds 1 h; Table Ia
T1 construct: WtAXL cDNA was cloned into vector pLXSN(ESK) and transfected into Phoenix E packaging cells; expressed in transfected cells; host or cells: NIH3T3 N7 (mouse fibroblasts), retrovirally infected, clone 22
T1 sequence (P30530 26-894): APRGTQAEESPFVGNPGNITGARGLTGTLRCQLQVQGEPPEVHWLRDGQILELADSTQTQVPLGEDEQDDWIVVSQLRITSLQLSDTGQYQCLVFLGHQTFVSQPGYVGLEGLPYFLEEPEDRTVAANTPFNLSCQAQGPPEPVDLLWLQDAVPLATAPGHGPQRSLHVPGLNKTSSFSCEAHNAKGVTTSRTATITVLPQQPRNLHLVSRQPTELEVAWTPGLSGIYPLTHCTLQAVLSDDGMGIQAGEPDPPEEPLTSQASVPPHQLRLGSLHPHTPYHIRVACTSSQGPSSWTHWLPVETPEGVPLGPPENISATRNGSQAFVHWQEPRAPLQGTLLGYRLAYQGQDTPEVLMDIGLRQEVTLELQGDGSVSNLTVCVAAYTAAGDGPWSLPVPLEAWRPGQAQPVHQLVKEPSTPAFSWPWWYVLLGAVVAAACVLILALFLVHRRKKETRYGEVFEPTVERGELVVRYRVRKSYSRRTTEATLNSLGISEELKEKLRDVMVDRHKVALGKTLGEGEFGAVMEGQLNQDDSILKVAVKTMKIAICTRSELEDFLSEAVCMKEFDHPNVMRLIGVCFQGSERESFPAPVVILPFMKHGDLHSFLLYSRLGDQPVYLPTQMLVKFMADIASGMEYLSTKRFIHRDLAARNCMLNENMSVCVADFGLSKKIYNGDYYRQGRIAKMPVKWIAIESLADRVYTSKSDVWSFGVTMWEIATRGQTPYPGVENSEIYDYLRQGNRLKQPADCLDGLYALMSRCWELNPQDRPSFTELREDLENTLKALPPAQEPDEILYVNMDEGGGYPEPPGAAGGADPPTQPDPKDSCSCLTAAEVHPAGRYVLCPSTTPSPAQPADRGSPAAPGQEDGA
Experimental: WtAXL cDNA was cloned into vector pLXSN(ESK) and transfected into Phoenix E packaging cells. The viral supernatant was collected and used to infect target cells NIH3T3 N7. Monoclonal NIH3T3-AXL cell lines stably expressing wtAXL were generated by selecting retrovirally infected cells in medium containing puromycin (2 μg/ml) and subsequent clonal separation.
Serial dilutions of compounds were added, and the cells were further incubated for 1 h. Cells were washed with PBS and lysed on ice in 500 μl lysis buffer (50 mM HEPES (pH 7.5), 150 mM NaCl, 1 mM EGTA, 10% Glycerol, 1% Triton X-100, 100 mM NaF, 10 mM Na4P2O7.10H2O, 1 mM Na3VO4, 1 mM phenylmethylsulfonyl fluoride, and […]) for 15 min. The cell lysate were used for phosphotyrosine AXL enzyme-linked immunosorbant assay (pY-AXL-ELISA). […] Subsequently 96-well plates were blocked with PBS-0.05% Tween®20+10% FBS for 4 h at 37° C. Plates were washed 5 times with PBS-0.05% Tween®20 and 95 μl of lysate was transferred per well for incubation overnight at 4° C. Plates were washed 5 times with PBS-0.05% Tween®20 (Sigma, Steinheim, Germany). For detection of phosphorylated tyrosine we used homemade biotynilated 4G10-antibody (0.5 μg/ml) in PBS-0.05% Tween®20+10% FBS (100 μl/well) and incubated the 96-well plate for 2 h at room temperature. The anti-phosphotyrosine mouse monoclonal antibody 4G10 was biotynilated with Sulfo-NHS®-Biotin according to the suppliers protocol (Pierce, Rockford, Ill., USA) and purified by Mirco Bio-Spin 6 Chromatograpy Columns (BIO RAD Laboratories, Inc., Hercules, Calif., USA) using PBS as diluent. Plates were washed 5 times with PBS-0.05% Tween®20. For biding to biotin Alkaline Phosphatase Conjugated Strepavidin SA110 (Millipore, Billerica, Mass., USA) (1:4000) was used in PBS-0.05% Tween20+10% FBS (100 μl/well) and incubated for 30 min at room temperature. Plates were washed 5 times with PBS-0.05% Tween20. For fluorimetric detection of alkaline phosphatase AttoPhos Substrate Set (Roche diagnostics GmbH, Mannheim, Germany) was used (100 μl/well). The fluorimetric signal was quantified after 90 min at 430/560 nm wavelength using a TECAN Ultra Evolution plate reader (Tecan Deutschland GmbH, Crailsheim, Germany).

Compound	melting point [°C]	pIC50 (Hs578T [2])	pIC50 [4]	pIC50 (Hs578T [1])	pIC50 (Hs578T [3])
COc1ccc2nccc(Oc3ccc(NS(=O)(=O)c4c(F)cccc4F)cc3F)c2c1 [Example 200, 2,6-Difluoro-N-[3-fluoro-4-(6-methoxy-quinolin-4-yloxy)-phenyl]-benzenesulfonamide]	227 to 228	4.30 to 4.90	–	4.30 to 4.90	4.60 to 5.00
COc1cc2c(Oc3ccc(NS(=O)(=O)c4cnc(C)[nH]4)cc3F)ccnc2cc1OCCCN1CCCCC1 [Example 167, 2-Methyl-3H-imidazole-4-sulfonic acid {3-fluoro-4-[6-methoxy-7-(3-piperidin-1-yl-propoxy)-quinolin-4-yloxy]-phenyl}-amide]	160 to 163	4.30 to 4.90	–	4.30 to 4.90	4.60 to 5.00
COc1cc2c(Oc3cccc(NS(=O)(=O)c4ccc(C)s4)c3)ccnc2cc1OCCCN1CCN(C)CC1 [Example 131, 5-Methyl-thiophene-2-sulfonic acid (3-{6-methoxy-7-[3-(4-methyl-piperazin-1-yl)-propoxy]-quinolin-4-yloxy}-phenyl)-amide]	147 to 149	4.30 to 4.90	–	≥ 4.90	4.60 to 5.00
COc1cc2c(Oc3ccc(NS(=O)(=O)c4cc(F)ccc4F)cc3F)ccnc2cc1OCCCNC(=O)OC(C)(C)C [Example 121, (3-{4-[4-(2,5-Difluoro-benzenesulfonylamino)-2-fluoro-phenoxy]-6-methoxy-quinolin-7-yloxy}-propyl)-carbamic acid tert-butyl ester]	115 to 118	4.30 to 4.90	–	4.30 to 4.90	4.60 to 5.00
COc1cc2c(Oc3ccc(NS(=O)(=O)c4ccn(C)n4)cc3F)ccnc2cc1OCCCN1CCCCC1C (stereo not shown) [Example 150, 1-Methyl-1H-pyrazole-3-sulfonic acid (3-fluoro-4-{6-methoxy-7-[3-(2-methyl-piperidin-1-yl)-propoxy]-quinolin-4-yloxy}-phenyl)-amide]	175 to 176	4.30 to 4.90	–	≥ 4.90	4.60 to 5.00
COc1cc2c(Oc3ccc(NS(=O)(=O)c4c(C)nn(C)c4C)cc3F)ccnc2cc1OCCCN1CCCCC1 [Example 159, 1,3,5-Trimethyl-1H-pyrazole-4-sulfonic acid {3-fluoro-4-[6-methoxy-7-(3-piperidin-1-yl-propoxy)-quinolin-4-yloxy]-phenyl}-amide]	96 to 98	4.30 to 4.90	–	≥ 4.90	4.60 to 5.00
COc1cc2c(Oc3cccc(NS(=O)(=O)C4CC4)c3)ccnc2cc1OCCCN1CCN(C)CC1 [Example 142, Cyclopropanesulfonic acid (3-{6-methoxy-7-[3-(4-methyl-piperazin-1-yl)-propoxy]-quinolin-4-yloxy}-phenyl)-amide]	150 to 152	4.30 to 4.90	–	4.30 to 4.90	4.60 to 5.00
COc1cc2c(Oc3ccc(NS(=O)(=O)c4c(F)cccc4F)cc3Cl)ccnc2cc1OCCCN1CCN(C)CC1 [Example 118, N-(3-Chloro-4-{6-methoxy-7-[3-(4-methyl-piperazin-1-yl)-propoxy]-quinolin-4-yloxy}-phenyl)-2,6-difluoro-benzenesulfonamide]	122 to 124	–	> 6.30	–	–

The next lines start with results.

melting point [°C]	pIC50 (Hs578T [2])	pIC50 [4]	Compound	pIC50 (Hs578T [1])	pIC50 (Hs578T [3])
157 to 159	4.30 to 4.90	–	COc1cc2c(Oc3ccc(NS(=O)(=O)c4ccn(C)n4)cc3F)ccnc2cc1OCCCN1CCN(C)CC1 [Example 166, 1-Methyl-1H-pyrazole-3-sulfonic acid (3-fluoro-4-{6-methoxy-7-[3-(4-methyl-piperazin-1-yl)-propoxy]-quinolin-4-yloxy}-phenyl)-amide]	≥ 4.90	4.60 to 5.00
188 to 189	≥ 4.90	–	COc1cc2c(Oc3cccc(NS(=O)(=O)c4cccs4)c3)ccnc2cc1OCCCN1CCN(C)CC1 [Example 129, Thiophene-2-sulfonic acid (3-{6-methoxy-7-[3-(4-methyl-piperazin-1-yl)-propoxy]-quinolin-4-yloxy}-phenyl)-amide]	≥ 4.90	≥ 5.00
118 to 120	4.30 to 4.90	–	COc1cc2c(Oc3cccc(NS(=O)(=O)c4c[nH]c(C)n4)c3)ccnc2cc1OCCCN1CCN(C)CC1 [Example 141, 2-Methyl-1H-imidazole-4-sulfonic acid (3-{6-methoxy-7-[3-(4-methyl-piperazin-1-yl)-propoxy]-quinolin-4-yloxy}-phenyl)-amide]	4.30 to 4.90	4.60 to 5.00
176 to 178	≥ 4.90	–	COc1cc2c(Oc3cccc(NS(=O)(=O)c4ccsc4)c3)ccnc2cc1OCCCN1CCN(C)CC1 [Example 133, Thiophene-3-sulfonic acid (3-{6-methoxy-7-[3-(4-methyl-piperazin-1-yl)-propoxy]-quinolin-4-yloxy}-phenyl)-amide]	≥ 4.90	≥ 5.00
220 to 222	4.30 to 4.90	–	COc1ccc2nccc(Oc3ccc(NS(=O)(=O)c4ccc5ccccc5c4)cc3F)c2c1 [Example 205, Naphthalene-2-sulfonic acid [3-fluoro-4-(6-methoxy-quinolin-4-yloxy)-phenyl]-amide]	4.30 to 4.90	4.60 to 5.00
148 to 150	4.30 to 4.90	–	COc1cc2c(Oc3cccc(NS(=O)(=O)c4sc(NC(C)=O)nc4C)c3)ccnc2cc1OCCCN1CCN(C)CC1 [Example 132, N-[5-(3-{6-Methoxy-7-[3-(4-methyl-piperazin-1-yl)-propoxy]-quinolin-4-yloxy}-phenylsulfamoyl)-4-methyl-thiazol-2-yl]-acetamide]	4.30 to 4.90	4.60 to 5.00
87 to 90	4.30 to 4.90	–	CCn1cc(S(=O)(=O)Nc2cccc(Oc3ccnc4cc(OCCCN5CCN(C)CC5)c(OC)cc34)c2)cn1 [Example 140, 1-Ethyl-1H-pyrazole-4-sulfonic acid (3-{6-methoxy-7-[3-(4-methyl-piperazin-1-yl)-propoxy]-quinolin-4-yloxy}-phenyl)-amide]	4.30 to 4.90	4.60 to 5.00

— patent publication US9169241B2, “Quinolinyloxyphenylsulfonamides” (Max-Planck-Gesellschaft Zur Forderung der Wissenschaften …, priority 2009, dated 2015)
